Assays:
[1] = Detection of THCA in oral fluid samples of test subjects by GC/MS/MS; type: in vivo, human; conditions: Group C: 26 samples screened and confirmed positive for Δ^9-THC
Description: Oral fluid samples from 223 test subjects were collected with a commercially available INTERCEPT® oral fluid collection device manufactured by OraSure Technologies, Inc. (Bethlehem, Pa.) in accordance with the manufacturer's instructions. This device comprises an absorbent collection pad (e.g., cotton or a sponge) affixed to the end of a handle. The collection pad of the collection device is placed in the mouth of the subject until the collection pad is substantially saturated with oral fluid, which typically takes about four minutes.
The oral fluid samples were obtained from two drug testing facilities. The samples were divided into three groups: negative screens (A), positive screens (B), and positive confirms (C). Group A consisted of 144 oral fluid samples that had been tested by ELISA for the parent compound Δ^9-THC and were negative for this test (cutoff 4.0 ng/ml Δ^9-THC, cross reactive with THCA at 0.33 ng/ml, no confirmation with GC/MS/MS performed). […] Finally, Group C consisted of 26 oral fluid samples that screened positive by ELISA for the parent compound Δ^9-THC and were also confirmed positive for Δ^9-THC by GC/MS/MS. Each of these samples from Group A, B, and C was then tested for the presence or absence of THCA by GC/MS/MS in accordance with the present invention. […]
Quantitation was performed using the internal standard area of the 495-peak ratio with the 492-peak. […]

[2] = Δ^9-THC metabolism in oral fluid (incubation at about 37° C., THCA assayed versus time); type: in vitro ADME; conditions: 10 ng/ml Δ^9-THC in certified negative oral fluid, several hours, triplicate
Procedure: In this example, Δ^9-THC metabolism in oral fluid was investigated. Δ^9-THC was incubated at about 37° C. in oral fluid for several hours. THCA levels were assayed versus time to ensure metabolism of Δ^9-THC to THCA or THCA-glucuronide in the oral cavity or mucosa was not a possible source of the measured result. This was performed in triplicate at 10 ng/ml using certified negative oral fluid samples. Δ^9-THC standard material of known purity was used.
Δ^9-THC metabolism to THCA was not detected during this experiment. Further, it has been reported that Δ^9-THC metabolism occurs in the liver. See Watanabe, et al., A cytochrome P450 isozyme having aldehyde oxygenase activity plays a major role in metabolizing cannabinoids by mouse hepatic microsomes, Biochem Pharmacol., Vol. 46 No. 3, at pp. 405-11 (August 1993).

Compound | THCA level in oral fluid (highest) [1] [pg/mL] | Δ^9-THC metabolism to THCA [2]
11-nor-Δ^9-THC carboxylic acid [THCA] | ≤ 142 | 
CCCCCc1cc(O)c2c(c1)OC(C)(C)[C@@H]1CCC(C)=C[C@@H]21 [Δ^9-THC, Δ^9-tetrahydrocannabinol] |  | not detected

Reference: patent publication US7977107B2, “Oral detection test for cannabinoid use” (LabOne, Inc., priority 2004, dated 2011)
